Source: US6150413A, “Triaromatic compounds and pharmaceutical/cosmetic compositions comprised thereof” (Centre International de Recherches Dermatologiques, priority 1997, dated 2000)

What was measured:
RAR [1] = assay: mouse-ear oedema induced by topical application of CD270 (test to identify RAR-antagonist molecules); assay type: in vivo; details: for % of inhibition of the agonist activity: mouse-ear oedema, topical, agonist CD270 0.01% w/v; for RAR-antagonist classification from the mouse-ear oedema table: results in words
Description: (§1) The compounds according to the invention show activity in the test of differentiation of mouse embryonic teratocarcinoma cells (F9) (Cancer Research 43, p. 5268, 1983) and/or in the test of inhibition of ornithine decarboxylase after induction with TPA in mice (Cancer Research 38, p. 793-801, 1978). These tests show the activities of these compounds in the fields of cell differentiation and proliferation respectively. In the cell (F9) differentiation test, it is possible to evaluate an agonist activity as an antagonist activity to retinoic acid receptors. […] These compounds are thus also active in a test which consists in identifying RAR-antagonist molecules, as described in French patent application No. 95/07302 filed on Jun. 19, 1995 by the Applicant. This test comprises the following steps: (i) a sufficient amount of an RAR-agonist molecule is applied topically to an area of the skin of a mammal, (ii) a molecule capable of showing RAR-antagonist activity is administered systemically or topically to this same mammal or to this same area of the mammal's skin, before, during or after step (i), and (iii) the response on the area of the mammal's skin thus treated is evaluated. Thus, the response to a topical application to a mammal's ear of an RAR-agonist molecule, which corresponds to an increase in the thickness of that ear, can be inhibited by the systemic or topical administration of an RAR-antagonist molecule.
Results of a test to identify RAR-antagonist molecules, as described in French patent application No. 95/07302 filed on Jun. 19, 1995 by the Applicant.
The test used is that of mouse-ear oedema induced by topical application of 2-(5,6,7,8-tetrahydro-5,5,8,8-tetramethyl-2-naphthyl)-6-benzo[b]-thiophenecarboxylic acid (CD270) at a concentration of 0.01% on a weight per unit volume basis.
The response can be inhibited by the topical administration of a dose (expressed in % on a weight per unit volume basis) of compound X.

RAR [2] = assay: differentiation of mouse embryonic teratocarcinoma cells (F9), inhibition of the activity of agonist CD2043 (RAR-antagonist identification); assay type: cell-based; details: for % of inhibition of the agonist activity: F9 cells, compound 10^-5 M, agonist CD2043 10^-8 M; for RAR-antagonist classification from the F9 table: results in words
Description: as §1
Results of a test of differentiation of mouse embryonic teratocarcinoma cells (F9) in order to identify RAR-antagonist molecules, described in Cancer Research 43, p. 5268, 1983.
In the test used, a compound is considered as being an RAR antagonist if it lowers the activity of the agonist (4-[(5,5,8,8-tetramethyl-5,6,7,8-tetrahydro-2-naphthylamino)methyl]benzoicacid, referred to as compound CD2043) on the morphology and secretion of the plasminogen activator by the F9 cells. In this test, the compounds are tested at 10^-5 M and the CD2043 is tested at 10^-8 M.

SMILES | inflammation / thickness of the mouse's ear (RAR [1]; topical CD270, 0.01% w/v, mouse ear) | % of inhibition of the agonist activity (RAR [1]; dose 0.01% w/v) | RAR-antagonist classification from the mouse-ear oedema table (RAR [1]) | % of inhibition of the agonist activity (RAR [2]) | RAR-antagonist classification from the F9 table (RAR [2]) | % of inhibition of the agonist activity (RAR [1]; dose 0.1% w/v)
CC1(C)CCC(C)(C)c2cc(-c3cc4ccc(C(=O)O)cc4s3)ccc21 [CD270, 2-(5,6,7,8-tetrahydro-5,5,8,8-tetramethyl-2-naphthyl)-6-benzo[b]-thiophenecarboxylic acid, reference compound] | causes an inflammation which is characterized by an increase in the thickness of the mouse's ear |  |  |  |  | 
O=C(O)c1ccc(C#C/C=C/c2ccccc2-c2ccccc2)cc1 [Example 1, 4-(4-Biphenyl-2-ylbut-3-en-(E)-1-ynyl)benzoic acid] |  | 78% | RAR-antagonist compounds | 100% | RAR-antagonist compounds | 
Cc1ccc(-c2ccccc2/C=C/C#Cc2ccc(C(=O)O)cc2)cc1 [Example 2, 4-[4-(4'-Methylbiphenyl-2-yl)but-3-en-(E)-1-ynyl]benzoic acid] |  | 85% | RAR-antagonist compounds | 94% | RAR-antagonist compounds | 
Cc1ccc(-c2cccc(F)c2/C=C/C#Cc2ccc(C(=O)O)cc2)cc1 [Example 11, 4-[4-(3-Fluoro-4'-methylbiphenyl-2-yl)but-3-en-(E)-1-ynyl]benzoic acid] |  |  | RAR-antagonist compounds | 96% | RAR-antagonist compounds | 99%
Cc1ccc(-c2ccc(C)cc2/C=C/C#Cc2ccc(C(=O)O)cc2)cc1 [Example 12, 4-[4-(4,4'-Dimethylbiphenyl-2-yl)but-3-en-1-ynyl]benzoic acid] |  | 45% | RAR-antagonist compounds | 87% | RAR-antagonist compounds | 
Cc1ccc(-c2c(C)cccc2/C=C/C#Cc2ccc(C(=O)O)cc2)cc1 [Example 14, 4-[4-(6,4'-Dimethylbiphenyl-2-yl)but-3-en-(E)-1-ynyl]benzoic acid] |  |  |  | 95% |  | 93%
COCOc1ccc(-c2ccc(C)cc2)c(/C=C/C#Cc2ccc(C(=O)O)cc2)c1 [Example 15, 4-[4-(4-Methoxymethoxy-4'-methylbiphenyl-2-yl)but-3-en-(E)-1-ynyl]benzoic acid] |  | 43% |  | 93% |  | 
COCOc1ccc(/C=C/C#Cc2ccc(C(=O)O)cc2)c(-c2ccc(C)cc2)c1 [Example 16, 4-[4-(5-Methoxymethoxy-4'-methylbiphenyl-2-yl)but-3-en-(E)-1-ynyl]benzoic acid] |  | 34% |  | 92% |  | 
COCOc1cccc(/C=C/C#Cc2ccc(C(=O)O)cc2)c1-c1ccc(C)cc1 [Example 17, 4-[4-(6-Methoxymethoxy-4'-methylbiphenyl-2-yl)but-3-en-(E)-1-ynyl]benzoic acid] |  |  |  | 98% |  | 94%
C/C(=C\C#Cc1ccc(C(=O)O)cc1)c1ccccc1-c1ccc(C)cc1 [Example 18, 4-[4-(4'-Methylbiphenyl-2-yl)pent-3-en-(E)-1-ynyl]benzoic acid] |  |  |  | 69% |  | 41%
COCOc1ccc(-c2ccccc2/C=C/C#Cc2ccc(C(=O)O)cc2)cc1 [Example 28, 4-[4-(4'-Methoxymethoxybiphenyl-2-yl)but-3-en-(E)-1-ynyl]benzoic acid] |  | 31% | RAR-antagonist compounds | 96% | RAR-antagonist compounds | 
COc1ccc(/C=C/C#Cc2ccc(C(=O)O)cc2)c(-c2ccc(C)cc2)c1 [Example 42, 4-[4-(4'-Methyl-5-methoxybiphenyl-2-yl)but-3-en-(E)-1-ynyl]benzoic acid] |  | 26% |  | 91% |  | 
CCCOc1ccc(/C=C/C#Cc2ccc(C(=O)O)cc2)c(-c2ccc(C)cc2)c1 [Example 43, 4-[4-(4'-Methyl-5-propoxybiphenyl-2-yl)but-3-en-(E)-1-ynyl]benzoic acid] |  | 24% |  | 84% |  | 
Cc1ccc(-c2c(O)cccc2/C=C/C#Cc2ccc(C(=O)O)cc2)cc1 [Example 44, 4-[4-(4'-Methyl-6-hydroxybiphenyl-2-yl)but-3-en-(E)-1-ynyl]benzoic acid] |  |  |  | 97% |  | 54%
COc1cccc(/C=C/C#Cc2ccc(C(=O)O)cc2)c1-c1ccc(C)cc1 [Example 45, 4-[4-(4'-Methyl-6-methoxybiphenyl-2-yl)but-3-en-(E)-1-ynyl]benzoic acid] |  |  |  | 95% |  | 99%
COCOc1cccc(-c2ccc(C)cc2)c1/C=C/C#Cc1ccc(C(=O)O)cc1 [Example 52, 4-[4-(3-Methoxymethoxy-4'-methylbiphenyl-2-yl)but-3-en-(E)-1-ynyl]benzoic acid] |  |  | RAR-antagonist compounds | 97% | RAR-antagonist compounds | 97%
